Laboratory results: patent US12649750B2, “Macrocyclic compounds, compositions, and methods of using thereof” (Sionna Therapeutics Inc., priority 2022, dated 2026)

Legend:
CFTR = molecular target: T1, CFTR (Homo sapiens, UniProt P13569, DEL508-508); experiment: TECC24 AUC fold over DMSO @10 μM, CFTR-mediated transepithelial chloride transport in CF-HBE cells; assay type: cell-based; settings: test agent AUC divided by DMSO vehicle AUC, primary CF-HBE cells, ΔF508 homozygous donor, 48 hours incubation
T1 construct: Primary human bronchial epithelial cells from a ΔF508 homozygous CF donor; host or cells: primary human bronchial epithelial cells (CF-HBE), ΔF508 homozygous donor
How it was run: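 Primary ΔF508-homozygous CF bronchial epithelial cells on inserts were incubated 48 h at 36.5 °C with compound in IL-13-containing medium. VT and TEER were then recorded in current-clamp mode (pH 7.4 HEPES bath) with benzamil 10 μM, forskolin 10 μM, then CFTR inhibitor-172 20 μM. The IEQ AUC between forskolin and inhibitor was divided by vehicle AUC.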

NBD1 = molecular target: T2, NBD1 (Homo sapiens, UniProt P13569); experiment: Aggregation analysis using differential static light scattering (DSLS), thermal stability of NBD1 (ΔTagg); assay type: binding; settings: ΔTagg versus DMSO control, NBD1 0.2 mg/ml
T2 construct: Purified recombinant NBD1 was produced using previously described methods; made in house
How it was run: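 Thermal aggregation of purified NBD1 was followed by static light scattering during a 1° C./min ramp to 70° C. Protein was at 0.2 mg/ml with 2 mM ATP at pH7.6. Each compound's Tagg was referenced to DMSO controls.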

T2 sequence (P13569 423-646 limits assumed): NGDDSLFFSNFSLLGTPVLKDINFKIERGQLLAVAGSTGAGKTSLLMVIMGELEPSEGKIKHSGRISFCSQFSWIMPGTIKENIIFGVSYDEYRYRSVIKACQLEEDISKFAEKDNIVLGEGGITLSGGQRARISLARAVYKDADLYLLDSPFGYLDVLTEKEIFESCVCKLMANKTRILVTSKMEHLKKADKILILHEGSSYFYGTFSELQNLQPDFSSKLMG
T1 sequence (P13569 with tags, fused parts or gaps DEL508-508): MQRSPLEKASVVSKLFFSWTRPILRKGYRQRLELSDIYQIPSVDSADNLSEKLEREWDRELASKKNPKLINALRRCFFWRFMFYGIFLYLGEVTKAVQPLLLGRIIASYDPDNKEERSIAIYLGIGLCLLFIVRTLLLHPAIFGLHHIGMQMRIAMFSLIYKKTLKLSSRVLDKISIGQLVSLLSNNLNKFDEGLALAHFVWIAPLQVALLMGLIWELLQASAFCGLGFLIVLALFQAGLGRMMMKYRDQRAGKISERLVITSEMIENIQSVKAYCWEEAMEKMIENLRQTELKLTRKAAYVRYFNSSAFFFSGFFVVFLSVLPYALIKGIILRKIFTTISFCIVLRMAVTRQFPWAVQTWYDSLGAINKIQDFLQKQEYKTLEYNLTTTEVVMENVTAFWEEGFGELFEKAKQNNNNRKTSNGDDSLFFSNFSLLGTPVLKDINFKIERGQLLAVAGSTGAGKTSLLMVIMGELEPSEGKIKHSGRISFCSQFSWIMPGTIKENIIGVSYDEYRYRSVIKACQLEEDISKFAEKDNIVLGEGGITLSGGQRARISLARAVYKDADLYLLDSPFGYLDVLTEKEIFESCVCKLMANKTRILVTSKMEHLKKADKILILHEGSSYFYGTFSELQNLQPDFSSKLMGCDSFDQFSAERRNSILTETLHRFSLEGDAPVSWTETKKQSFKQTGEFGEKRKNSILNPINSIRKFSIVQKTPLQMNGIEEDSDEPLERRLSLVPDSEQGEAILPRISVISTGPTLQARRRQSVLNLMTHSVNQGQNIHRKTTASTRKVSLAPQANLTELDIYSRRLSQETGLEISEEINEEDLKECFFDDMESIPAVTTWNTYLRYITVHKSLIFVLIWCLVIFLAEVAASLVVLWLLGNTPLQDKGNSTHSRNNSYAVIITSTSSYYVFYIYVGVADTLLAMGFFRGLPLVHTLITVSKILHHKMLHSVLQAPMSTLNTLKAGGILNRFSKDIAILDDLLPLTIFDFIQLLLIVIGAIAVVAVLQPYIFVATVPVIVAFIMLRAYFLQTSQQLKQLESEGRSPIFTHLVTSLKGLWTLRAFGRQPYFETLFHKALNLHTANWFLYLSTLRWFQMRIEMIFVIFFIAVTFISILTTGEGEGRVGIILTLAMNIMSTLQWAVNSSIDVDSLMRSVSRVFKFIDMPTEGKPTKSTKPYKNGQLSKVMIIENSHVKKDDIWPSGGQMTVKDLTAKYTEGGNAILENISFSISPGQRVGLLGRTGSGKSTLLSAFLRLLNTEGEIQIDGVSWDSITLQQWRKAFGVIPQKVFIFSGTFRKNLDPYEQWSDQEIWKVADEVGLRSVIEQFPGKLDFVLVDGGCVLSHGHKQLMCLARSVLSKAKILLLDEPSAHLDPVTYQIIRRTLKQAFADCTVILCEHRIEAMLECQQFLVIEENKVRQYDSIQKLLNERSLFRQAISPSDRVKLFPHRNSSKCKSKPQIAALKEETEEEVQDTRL

SMILES | TECC (AUC, 10 μM) (CFTR) | DSLS 3D (100 μM ΔT) (NBD1)
Cn1nc2nc1-c1cc(ccc1F)Oc1c(F)cc3[nH]ccc3c1CCS(=O)(=O)/C=C(\F)C(C)(C)CCC2(C)c1cccc(CCC(=O)O)c1 (racemic) [Compound 94, 3-[3-[(10Z)-10,22,28-Trifluoro-3,6,9,9-tetramethyl-12,12-dioxo-24-oxa-12lambda6-thia-3,4,19,30-tetrazapentacyclo-[23.3.1.12,5.015,23.016,20]triaconta-1(29),2(30),4,10,15,17,20,22,25,27-decaen-6-yl]phenyl]propanoic Acid] | A (a TECC value less than 12 is marked “A”) | A (an ΔTagg value less than or equal to 5 °C is marked “A”)
Cn1nc2nc1-c1cc(ccn1)C(=O)c1c(F)cc3[nH]ccc3c1CCS(=O)(=O)CC(C)(C)CCC[C@]2(C)c1cccc(CC(=O)O)c1 [Compound 247, 2-[3-[(6R)-22-fluoro-3,6,10,10-tetramethyl-12,12,24-trioxo-12λ6-thia-3,4,19,28,30-pentazapentacyclo[23.3.1.12,5.015,23.016,20]triaconta-1(29),2(30),4,15,17,20,22,25,27-nonaen-6-yl]phenyl]acetic Acid] | C (a value between 20 and 80 is marked “C”) | C (a value greater than 10 °C and less than or equal to 25 °C is marked “C”)
C[C@@H](Cc1cccc([C@@]2(C)CCCC(C)(C)CS(=O)(=O)CCc3c(c(F)cc4[nH]ccc34)Sc3cccc(c3)-c3nc2co3)c1)C(=O)O [Compound 293, (2S)-3-[3-[(6R)-22-fluoro-6,10,10-trimethyl-12,12-dioxo-3-oxa-12λ6,24-dithia-19,30-diazapentacyclo[23.3.1.12,5.015,23.016,20]triaconta-1(29),2(30),4,15,17,20,22,25,27-nonaen-6-yl]phenyl]-2-methyl-propanoic Acid] | B (a value between 12-20 is marked “B”) | C (a value greater than 10 °C and less than or equal to 25 °C is marked “C”)
C[C@@H](Cc1cccc(C2(C)CCCC(C)(C)CS(=O)(=O)CCc3c(c(F)cc4[nH]ccc34)Oc3ccc(F)c(c3)-c3nc2nn3C)c1)C(=O)OCC(O)CO (single isomer, unassigned) [Compound 141] | B (a value between 12-20 is marked “B”) | C (a value greater than 10 °C and less than or equal to 25 °C is marked “C”)
Cn1nc2nc1-c1cc(ccn1)Oc1c(F)cc3[nH]ccc3c1CCS(=O)(=O)CC(C)(C)CCC[C@]2(C)c1cccc(CC(=O)O)c1 [Compound 226, 2-[3-[(6R)-22-Fluoro-3,6,10,10-tetramethyl-12,12-dioxo-24-oxa-12λ6-thia-3,4,19,28,30-pentazapentacyclo[23.3.1.12,5.015,23.016,20]triaconta-1(29),2(30),4,15,17,20,22,25,27-nonaen-6-yl]phenyl]acetic Acid] | C (a value between 20 and 80 is marked “C”) | C (a value greater than 10 °C and less than or equal to 25 °C is marked “C”)
CC(Cc1cccc(C2(C)CCCC3(CC3)CS(=O)(=O)CCc3c(c(F)cc4[nH]ccc34)Oc3ccc(F)c(c3)-c3nc2nn3C)c1)C(=O)O (single isomer, unassigned) [Compound 13A, 3-[3-(22,28-difluoro-3,6-dimethyl-12,12-dioxo-spiro[24-oxa-12lambda6-thia-3,4,19,30-tetrazapentacyclo[23.3.1.12,5.015,23.016,20]triaconta-1(29),2(30),4,15,17,20,22,25,27-nonaene-10,1′-cyclopropane]-6-yl)phenyl]-2-methyl-propanic Acid] | B (a value between 12-20 is marked “B”) | C (a value greater than 10 °C and less than or equal to 25 °C is marked “C”)
C[C@H](Cc1cccc(C2(C)CCCC(C)(C)CS(=O)(=O)CCc3c(c(F)cc4[nH]ccc34)C(=O)c3ccc(F)c(c3)-c3nc2nn3C)c1)C(=O)O (single isomer, unassigned) [Compound 126A] | B (a value between 12-20 is marked “B”) | C (a value greater than 10 °C and less than or equal to 25 °C is marked “C”)
Cn1nc2nc1-c1cc(ccc1F)Cc1c(F)cc3[nH]ccc3c1CCS(=O)(=O)CC(C)(C)CCCC2(C)c1cccc(CCC(=O)O)c1 (single isomer, unassigned) [Compound 32A, 3-[3-(22,28-Difluoro-3,6,10,10-tetramethyl-12,12-dioxo-12lambda6-thia-3,4,19,30-tetrazapentacyclo[23.3.1.12,5.015,23.016,20]triaconta-1(29),2(30),4,15,17,20,22,25,27-nonaen-6-yl)phenyl]propanoic Acid] | A (a TECC value less than 12 is marked “A”) | A (an ΔTagg value less than or equal to 5 °C is marked “A”)
Cn1nc2nc1-c1cc(ccc1F)[S+]([O-])c1c(F)c(F)c3[nH]ccc3c1CCS(=O)(=O)CC(C)(C)CCC[C@]2(C)c1cccc(CC(C)(C)C(=O)O)c1 (stereo partly drawn) [Compound 280, 2,2-dimethyl-3-[3-[(6R)-21,22,28-trifluoro-3,6,10,10-tetramethyl-12,12,24-trioxo-12λ6,24λ4-dithia-3,4,19,30-tetrazapentacyclo[23.3.1.12,5.015,23.016,20]triaconta-1(29),2(30),4,15,17,20,22,25,27-nonaen-6-yl]phenyl]propanoic Acid] | C (a value between 20 and 80 is marked “C”) | C (a value greater than 10 °C and less than or equal to 25 °C is marked “C”)
Cn1nc2nc1-c1cc(ccc1F)C(=O)c1c(F)cc3[nH]ccc3c1CCS(=O)(=O)CC(C)(C)CCCC2(C)c1cccc(CCC(=O)O)c1 (single isomer, unassigned) [Compound 31D, 3-[3-[22,28-difluoro-3,6,10,10-tetramethyl-12,12,24-trioxo-12lambda6-thia-3,4,19,30-tetrazapentacyclo[23.3.1.12,5.015,23.016,20]triaconta-1(29),2(30),4,15,17,20,22,25,27-nonaen-6-yl]phenyl]propanoic acid] | C (a value between 20 and 80 is marked “C”) | A (an ΔTagg value less than or equal to 5 °C is marked “A”)
COC(=O)[C@H](C)Cc1cccc([C@@]2(C)CCCC(C)(C)CS(=O)(=O)CCc3c(c(F)cc4[nH]ccc34)Oc3cnnc(c3)-c3nc2nn3C)c1 [Compound 265, Methyl (2R)-3-[3-[(6R)-22-fluoro-3,6,10,10-tetramethyl-12,12-dioxo-24-oxa-12λ6-thia-3,4,19,27,28,30-hexazapentacyclo[23.3.1.12,5.015,23.016,20]triaconta-1(29),2(30),4,15,17,20,22,25,27-nonaen-6-yl]phenyl]-2-methyl-propanoate] | C (a value between 20 and 80 is marked “C”) | B (a value above 5 °C and less than or equal to 10 °C is marked “B”)
Cn1nc2nc1-c1cc(ccc1F)Oc1c(F)cc3[nH]ccc3c1CCS(=O)(=O)CC(C)(C)CCCC2(CF)c1cccc(CCC(=O)O)c1 (centres unmarked) [Compound 105, 3-[3-[22,28-Difluoro-6-(fluoromethyl)-3,10,10-trimethyl-12,12-dioxo-24-oxa-12lambda6-thia-3,4,19,30-tetrazapentacyclo-[23.3.1.12,5.015,23.016,20]triaconta-1(29),2(30),4,15,17,20,22,25,27-nonaen-6-yl]phenyl]propanoic acid] | A (a TECC value less than 12 is marked “A”) | B (a value above 5 °C and less than or equal to 10 °C is marked “B”)
CC1CCC(C)(c2cccc(CCC(=O)O)c2)c2cnc([nH]2)-c2cc(ccc2F)Oc2c(F)cc3[nH]ccc3c2CCS(=O)(=O)CC1 (centres unmarked) [Compound 42, 3-[3-(22,28-Difluoro-6,9-dimethyl-12,12-dioxo-24-oxa-12lambda6-thia-3,19,30-triazapentacyclo[23.3.1.12,5.015,23.016,20]triaconta-1(29),2,4,15,17,20,22,25,27-nonaen-6-yl)phenyl]propanoic Acid] | B (a value between 12-20 is marked “B”) | C (a value greater than 10 °C and less than or equal to 25 °C is marked “C”)
C[C@@H](Cc1cccc([C@@]2(C)CCCC(C)(C)CS(=O)(=O)CCc3c(c(F)cc4[nH]ccc34)Oc3ccc(F)c(c3)-c3coc2n3)c1)C(=O)O [Compound 192, (2S)-3-[3-[(6R)-22,28-difluoro-6,10,10-trimethyl-12,12-dioxo-4,24-dioxa-12λ6-thia-19,30-diazapentacyclo[23.3.1.12,5.015,23.016,20]triaconta-1(29),2,5(30),15,17,20,22,25,27-nonaen-6-yl]phenyl]-2-methyl-propanoic Acid] | C (a value between 20 and 80 is marked “C”) | C (a value greater than 10 °C and less than or equal to 25 °C is marked “C”)
C[C@@H](Cc1cccc([C@@]2(C)CCCC(C)(C)CS(=O)(=O)CCc3c(c(F)cc4[nH]ccc34)C(O)c3ccnc(c3)-c3nc2nn3C)c1)C(=O)O (single isomer, unassigned) [Compound 255A] | A (a TECC value less than 12 is marked “A”) | B (a value above 5 °C and less than or equal to 10 °C is marked “B”)
C[C@H](O)Cc1cccc([C@@]2(C)CCCC(C)(C)CS(=O)(=O)CCc3c(c(F)cc4[nH]ccc34)[S+]([O-])c3ccc(F)c(c3)-c3nc2nn3C)c1 (single isomer, unassigned) [Compound 237B] | C (a value between 20 and 80 is marked “C”) | C (a value greater than 10 °C and less than or equal to 25 °C is marked “C”)
